According to ChEMBL document CHEMBL4673207, “Recent advances in the discovery of potent and selective HDAC6 inhibitors” (Eur J Med Chem, 2018):
pIC50: −log10 of the molar value.

Tests used:
Homo sapiens [1] = species: Homo sapiens; assay: Selectivity ratio of IC50 for human HDAC1 to IC50 for human HDAC6
Homo sapiens [2] = species: Homo sapiens; assay: Selectivity ratio of IC50 for human HDAC3 to IC50 for human HDAC6
Homo sapiens [3] = species: Homo sapiens; assay: Selectivity ratio of IC50 for human HDAC8 to IC50 for human HDAC6
Homo sapiens [4] = species: Homo sapiens; assay: Selectivity ratio of IC50 for human HDAC11 to IC50 for human HDAC6
Homo sapiens [5] = species: Homo sapiens; assay: Selectivity ratio of IC50 for human HDAC9 to IC50 for human HDAC6
Homo sapiens [6] = species: Homo sapiens; assay: Selectivity ratio of IC50 for human HDAC10 to IC50 for human HDAC6
Homo sapiens [7] = species: Homo sapiens; assay: Selectivity ratio of IC50 for human HDAC5 to IC50 for human HDAC6
Homo sapiens [8] = species: Homo sapiens; assay: Selectivity ratio of IC50 for human HDAC7 to IC50 for human HDAC6
Homo sapiens [9] = species: Homo sapiens; assay: Selectivity ratio of IC50 for human HDAC4 to IC50 for human HDAC6
Homo sapiens [10] = species: Homo sapiens; assay: Selectivity ratio of IC50 for human HDAC2 to IC50 for human HDAC6
[11] = target: T1, Protein deacetylase HDAC6 (Homo sapiens, UniProt Q9UBN7); assay: Inhibition of human full-length recombinant HDAC6 using fluorogenic peptide […] (RHKK(Ac)) as substrate by fluorescence method
T1 sequence (Q9UBN7 whole entry): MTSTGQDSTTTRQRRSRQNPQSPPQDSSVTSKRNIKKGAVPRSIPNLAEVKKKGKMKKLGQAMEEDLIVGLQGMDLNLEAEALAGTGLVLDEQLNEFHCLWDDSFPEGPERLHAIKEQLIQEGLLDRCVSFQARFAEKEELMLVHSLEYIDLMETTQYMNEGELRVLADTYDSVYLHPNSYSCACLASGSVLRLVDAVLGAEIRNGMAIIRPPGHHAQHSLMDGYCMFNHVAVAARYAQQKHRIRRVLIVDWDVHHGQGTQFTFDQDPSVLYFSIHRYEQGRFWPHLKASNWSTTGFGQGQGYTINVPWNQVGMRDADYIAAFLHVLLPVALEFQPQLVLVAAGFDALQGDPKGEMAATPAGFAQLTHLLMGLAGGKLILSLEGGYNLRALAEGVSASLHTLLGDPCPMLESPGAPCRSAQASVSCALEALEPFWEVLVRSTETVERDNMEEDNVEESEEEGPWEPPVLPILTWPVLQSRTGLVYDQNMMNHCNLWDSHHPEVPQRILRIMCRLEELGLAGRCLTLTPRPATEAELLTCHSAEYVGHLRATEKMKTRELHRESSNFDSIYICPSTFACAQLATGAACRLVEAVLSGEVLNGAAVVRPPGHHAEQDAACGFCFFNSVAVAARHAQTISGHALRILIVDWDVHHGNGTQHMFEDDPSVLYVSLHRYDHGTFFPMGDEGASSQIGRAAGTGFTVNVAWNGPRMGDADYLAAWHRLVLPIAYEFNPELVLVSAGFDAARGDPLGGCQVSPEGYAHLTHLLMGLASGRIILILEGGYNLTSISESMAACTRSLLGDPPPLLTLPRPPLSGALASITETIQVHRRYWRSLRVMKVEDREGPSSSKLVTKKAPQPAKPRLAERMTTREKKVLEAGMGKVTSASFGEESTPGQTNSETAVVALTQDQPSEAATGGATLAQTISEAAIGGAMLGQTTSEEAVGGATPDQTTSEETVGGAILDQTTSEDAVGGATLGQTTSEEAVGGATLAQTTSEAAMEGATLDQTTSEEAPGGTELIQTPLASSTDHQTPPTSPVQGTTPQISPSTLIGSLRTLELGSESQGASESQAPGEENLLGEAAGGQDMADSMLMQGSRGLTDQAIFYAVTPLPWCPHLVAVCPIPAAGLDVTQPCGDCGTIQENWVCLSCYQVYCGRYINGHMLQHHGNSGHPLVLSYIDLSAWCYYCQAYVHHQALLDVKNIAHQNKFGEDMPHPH

Histone deacetylase 1 [12] = target: T2, Histone deacetylase 1 (Homo sapiens, UniProt Q13547); assay: Inhibition of human full-length recombinant HDAC1 using p53 fluorogenic peptide ([…] residues) (RHKK(Ac)) as substrate by fluorescence method
T2 sequence (Q13547 whole entry): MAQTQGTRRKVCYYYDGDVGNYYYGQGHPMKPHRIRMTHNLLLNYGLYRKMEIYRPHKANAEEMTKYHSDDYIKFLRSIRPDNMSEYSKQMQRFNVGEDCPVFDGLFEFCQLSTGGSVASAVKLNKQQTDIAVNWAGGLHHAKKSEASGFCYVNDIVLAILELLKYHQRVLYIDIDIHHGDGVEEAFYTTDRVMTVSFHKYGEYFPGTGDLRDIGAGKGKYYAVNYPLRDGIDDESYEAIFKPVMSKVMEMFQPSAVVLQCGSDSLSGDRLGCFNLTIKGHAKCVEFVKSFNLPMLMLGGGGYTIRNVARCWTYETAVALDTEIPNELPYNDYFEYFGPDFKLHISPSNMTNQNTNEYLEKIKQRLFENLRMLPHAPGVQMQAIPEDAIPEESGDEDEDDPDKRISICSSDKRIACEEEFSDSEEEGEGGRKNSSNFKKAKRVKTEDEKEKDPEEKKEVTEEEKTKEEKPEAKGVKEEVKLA

Histone deacetylase 2 [13] = target: T3, Histone deacetylase 2 (Homo sapiens, UniProt Q92769); assay: Inhibition of human full-length recombinant HDAC2 using fluorogenic peptide ([…] residues) (RHKK(Ac)) as substrate by fluorescence method
T3 sequence (Q92769 whole entry): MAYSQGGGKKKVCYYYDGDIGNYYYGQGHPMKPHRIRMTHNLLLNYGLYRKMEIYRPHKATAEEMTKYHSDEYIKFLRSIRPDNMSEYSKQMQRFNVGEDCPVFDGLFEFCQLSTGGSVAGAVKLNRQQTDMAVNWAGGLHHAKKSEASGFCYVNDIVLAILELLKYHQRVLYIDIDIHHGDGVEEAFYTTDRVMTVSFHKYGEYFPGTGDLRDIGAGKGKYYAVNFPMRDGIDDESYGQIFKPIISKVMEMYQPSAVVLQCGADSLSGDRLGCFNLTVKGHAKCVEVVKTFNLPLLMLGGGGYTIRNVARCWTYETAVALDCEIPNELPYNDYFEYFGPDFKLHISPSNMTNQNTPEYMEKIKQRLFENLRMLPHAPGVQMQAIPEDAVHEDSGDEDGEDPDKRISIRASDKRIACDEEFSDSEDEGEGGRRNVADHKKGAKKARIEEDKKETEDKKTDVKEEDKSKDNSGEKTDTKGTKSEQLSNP

Histone deacetylase = assay: Inhibition of HDAC in human HeLa cell extracts using Fluor de lys as substrate incubated for 30 mins by fluorimetric analysis
HCT-116 = assay: Antitumor activity against human HCT116 cells xenografted in BALB/c athymic nude mouse assessed as tumor growth inhibition at 20 mg/kg administered twice daily for 14 days and measuring daily during compound dosing relative to control; format: functional; conditions: HCT-116, 336 h, time 14 day, read-out: TGI
SH-SY5Y = assay: Antiproliferative activity against human SH-SY5Y cells incubated for 72 hrs by sulphorhodamine B assay; format: functional, cell-based
KMS-11 = assay: Antiproliferative activity against human KMS-11 cells incubated for 72 hrs by sulphorhodamine B assay; format: functional
[14] = target: T1, Protein deacetylase HDAC6; assay: Inhibition of HDAC6 (unknown origin) using (AMC)-labelled p53 peptide( 379 to 382 residues) RHKKAc as substrate
Histone deacetylase 1 [15] = target: T2, Histone deacetylase 1; assay: Inhibition of HDAC1 (unknown origin) using (AMC)-labelled p53 peptide( 379 to 382 residues) RHKKAc as substrate
[16] = target: T4, Polyamine deacetylase HDAC10 (Homo sapiens, UniProt Q969S8); assay: Inhibition of HDAC10 (unknown origin)
T4 sequence (Q969S8 whole entry): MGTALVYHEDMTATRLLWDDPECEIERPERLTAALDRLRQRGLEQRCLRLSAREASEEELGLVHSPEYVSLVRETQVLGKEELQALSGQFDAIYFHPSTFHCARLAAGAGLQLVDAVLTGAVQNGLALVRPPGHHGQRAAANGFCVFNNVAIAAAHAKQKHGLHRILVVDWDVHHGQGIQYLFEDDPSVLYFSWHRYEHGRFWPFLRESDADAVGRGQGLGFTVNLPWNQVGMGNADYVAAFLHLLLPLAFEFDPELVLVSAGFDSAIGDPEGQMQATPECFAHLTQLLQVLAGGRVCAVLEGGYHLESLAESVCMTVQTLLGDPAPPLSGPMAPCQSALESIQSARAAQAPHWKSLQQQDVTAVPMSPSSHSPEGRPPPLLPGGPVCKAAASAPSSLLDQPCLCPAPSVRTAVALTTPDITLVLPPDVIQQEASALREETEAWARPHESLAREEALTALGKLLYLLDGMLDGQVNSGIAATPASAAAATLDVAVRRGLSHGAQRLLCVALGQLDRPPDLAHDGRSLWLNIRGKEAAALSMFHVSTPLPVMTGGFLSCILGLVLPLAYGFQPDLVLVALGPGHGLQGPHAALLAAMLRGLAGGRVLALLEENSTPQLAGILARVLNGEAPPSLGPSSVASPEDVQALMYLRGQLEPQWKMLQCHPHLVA

Histone deacetylase 9 = Histone deacetylase 9 (Homo sapiens, UniProt Q9UKV0); assay: Inhibition of HDAC9 (unknown origin)
Chain of Histone deacetylase 9 (Q9UKV0 whole entry): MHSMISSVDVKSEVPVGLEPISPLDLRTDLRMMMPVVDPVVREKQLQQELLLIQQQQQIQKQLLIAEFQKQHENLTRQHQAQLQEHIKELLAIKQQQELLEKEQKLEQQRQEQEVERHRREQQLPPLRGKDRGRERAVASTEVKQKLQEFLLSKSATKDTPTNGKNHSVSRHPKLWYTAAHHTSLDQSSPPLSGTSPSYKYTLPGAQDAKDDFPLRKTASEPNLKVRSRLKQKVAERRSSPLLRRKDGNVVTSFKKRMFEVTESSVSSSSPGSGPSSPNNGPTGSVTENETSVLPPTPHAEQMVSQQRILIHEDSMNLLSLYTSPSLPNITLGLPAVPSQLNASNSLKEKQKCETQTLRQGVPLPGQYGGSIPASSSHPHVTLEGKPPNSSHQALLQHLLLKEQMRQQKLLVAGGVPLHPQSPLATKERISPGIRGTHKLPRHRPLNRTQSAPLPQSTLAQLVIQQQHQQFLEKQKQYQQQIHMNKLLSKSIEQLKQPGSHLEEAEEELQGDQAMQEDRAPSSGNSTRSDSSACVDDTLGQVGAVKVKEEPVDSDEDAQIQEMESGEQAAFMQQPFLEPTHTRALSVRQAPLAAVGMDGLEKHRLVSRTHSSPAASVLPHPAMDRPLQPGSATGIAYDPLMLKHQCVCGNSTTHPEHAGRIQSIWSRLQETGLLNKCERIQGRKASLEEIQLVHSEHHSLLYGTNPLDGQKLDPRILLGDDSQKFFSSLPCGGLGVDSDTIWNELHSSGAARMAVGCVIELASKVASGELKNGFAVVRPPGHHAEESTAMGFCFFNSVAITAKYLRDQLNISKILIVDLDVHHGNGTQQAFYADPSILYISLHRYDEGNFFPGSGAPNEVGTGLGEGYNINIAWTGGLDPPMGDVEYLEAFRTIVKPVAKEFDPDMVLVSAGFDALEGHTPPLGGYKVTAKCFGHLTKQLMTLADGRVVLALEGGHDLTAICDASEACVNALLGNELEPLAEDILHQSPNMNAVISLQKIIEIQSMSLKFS

Histone deacetylase 5 = Histone deacetylase 5 (Homo sapiens, UniProt Q9UQL6); assay: Inhibition of HDAC5 (unknown origin)
Chain of Histone deacetylase 5 (Q9UQL6 whole entry): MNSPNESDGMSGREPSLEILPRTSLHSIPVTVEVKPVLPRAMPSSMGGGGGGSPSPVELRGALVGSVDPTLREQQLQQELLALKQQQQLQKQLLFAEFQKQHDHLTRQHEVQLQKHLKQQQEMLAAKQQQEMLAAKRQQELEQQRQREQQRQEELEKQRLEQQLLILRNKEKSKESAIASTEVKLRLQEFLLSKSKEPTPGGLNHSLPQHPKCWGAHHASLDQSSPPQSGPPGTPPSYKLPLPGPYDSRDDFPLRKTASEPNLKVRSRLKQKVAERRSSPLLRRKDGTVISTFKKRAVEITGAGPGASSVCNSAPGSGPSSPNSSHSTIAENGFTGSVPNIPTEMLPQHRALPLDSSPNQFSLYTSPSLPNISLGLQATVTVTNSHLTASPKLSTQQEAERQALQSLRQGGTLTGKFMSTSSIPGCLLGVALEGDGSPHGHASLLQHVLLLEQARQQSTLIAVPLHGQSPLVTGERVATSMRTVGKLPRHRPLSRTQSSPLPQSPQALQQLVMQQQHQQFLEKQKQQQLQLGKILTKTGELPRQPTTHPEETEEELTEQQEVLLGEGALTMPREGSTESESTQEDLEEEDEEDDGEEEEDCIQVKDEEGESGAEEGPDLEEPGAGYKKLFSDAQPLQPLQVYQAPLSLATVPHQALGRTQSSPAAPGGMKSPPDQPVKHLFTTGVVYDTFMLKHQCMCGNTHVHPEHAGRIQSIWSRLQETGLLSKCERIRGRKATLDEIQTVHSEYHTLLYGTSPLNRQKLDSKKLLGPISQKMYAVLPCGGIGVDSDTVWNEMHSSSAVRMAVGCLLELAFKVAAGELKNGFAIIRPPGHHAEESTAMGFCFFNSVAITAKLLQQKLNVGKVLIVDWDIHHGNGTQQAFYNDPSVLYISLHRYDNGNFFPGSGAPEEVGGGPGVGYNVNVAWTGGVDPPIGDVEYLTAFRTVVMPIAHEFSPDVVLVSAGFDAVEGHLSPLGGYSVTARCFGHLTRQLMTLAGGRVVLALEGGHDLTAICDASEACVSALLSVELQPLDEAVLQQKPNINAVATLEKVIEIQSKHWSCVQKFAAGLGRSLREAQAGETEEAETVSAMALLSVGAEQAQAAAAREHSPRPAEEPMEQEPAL

Histone deacetylase 4 = Histone deacetylase 4 (Homo sapiens, UniProt P56524); assay: Inhibition of HDAC4 (unknown origin)
Histone deacetylase 3 = Histone deacetylase 3 (Homo sapiens, UniProt O15379); assay: Inhibition of HDAC3 (unknown origin)
Chain of Histone deacetylase 3 (O15379 whole entry): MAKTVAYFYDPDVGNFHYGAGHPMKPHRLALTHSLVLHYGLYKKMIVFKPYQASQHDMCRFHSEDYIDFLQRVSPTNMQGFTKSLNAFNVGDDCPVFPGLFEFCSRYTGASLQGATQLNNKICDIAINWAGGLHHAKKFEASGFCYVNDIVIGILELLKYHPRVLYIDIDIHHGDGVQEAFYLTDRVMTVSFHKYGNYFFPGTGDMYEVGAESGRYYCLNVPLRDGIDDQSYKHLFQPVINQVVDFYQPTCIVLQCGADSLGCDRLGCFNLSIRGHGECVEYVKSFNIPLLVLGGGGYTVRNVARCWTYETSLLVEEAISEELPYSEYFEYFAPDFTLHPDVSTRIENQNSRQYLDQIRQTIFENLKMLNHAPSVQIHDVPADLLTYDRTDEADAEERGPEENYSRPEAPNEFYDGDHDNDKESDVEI

Histone deacetylase 1 [17] = target: T2, Histone deacetylase 1; assay: Inhibition of HDAC1 (unknown origin)
Histone deacetylase 2 [18] = target: T3, Histone deacetylase 2; assay: Inhibition of HDAC2 (unknown origin)
Histone deacetylase 11 = Histone deacetylase 11 (Homo sapiens, UniProt Q96DB2); assay: Inhibition of HDAC11 (unknown origin)
Chain of Histone deacetylase 11 (Q96DB2 whole entry): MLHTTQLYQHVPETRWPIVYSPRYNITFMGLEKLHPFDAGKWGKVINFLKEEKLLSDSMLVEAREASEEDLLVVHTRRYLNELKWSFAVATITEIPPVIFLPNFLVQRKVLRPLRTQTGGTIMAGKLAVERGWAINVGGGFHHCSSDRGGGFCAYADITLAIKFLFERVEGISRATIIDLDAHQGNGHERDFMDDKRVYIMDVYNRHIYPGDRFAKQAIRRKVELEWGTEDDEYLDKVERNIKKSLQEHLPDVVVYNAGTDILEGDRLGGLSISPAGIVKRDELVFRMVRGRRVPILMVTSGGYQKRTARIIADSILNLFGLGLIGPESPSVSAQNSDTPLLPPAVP

Histone deacetylase 8 = Histone deacetylase 8 (Homo sapiens, UniProt Q9BY41); assay: Inhibition of HDAC8 (unknown origin)
Chain of Histone deacetylase 8 (Q9BY41 whole entry): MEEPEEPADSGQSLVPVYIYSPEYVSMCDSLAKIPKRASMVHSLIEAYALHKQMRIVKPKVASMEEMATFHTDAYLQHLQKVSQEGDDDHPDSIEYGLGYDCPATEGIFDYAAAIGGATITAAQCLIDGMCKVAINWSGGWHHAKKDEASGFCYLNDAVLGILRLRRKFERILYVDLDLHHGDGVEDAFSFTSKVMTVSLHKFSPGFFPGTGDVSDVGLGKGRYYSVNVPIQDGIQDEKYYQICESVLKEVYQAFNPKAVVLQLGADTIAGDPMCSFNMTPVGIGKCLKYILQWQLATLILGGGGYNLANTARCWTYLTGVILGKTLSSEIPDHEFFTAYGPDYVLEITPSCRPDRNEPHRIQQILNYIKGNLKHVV

[19] = target: T1, Protein deacetylase HDAC6; assay: Inhibition of HDAC6 (unknown origin)
HEK293T = assay: Selectivity ratio of IC50 for Flag-tagged HDAC1 (unknown origin) expressed in 293T cells to IC50 for Flag-tagged HDAC6 (unknown origin) expressed in 293T cells; format: cell-based; conditions: Homo sapiens
[20] = target: T1, Protein deacetylase HDAC6; assay: Inhibition of Flag-tagged HDAC6 (unknown origin) expressed in 293T cells using ZMAL as substrate incubated for 180 mins by fluorescence method; parameters: species or system HEK293T

Which Ratio IC50 (Homo sapiens [1]) does the source give for Cc1nc2ccccc2n1Cc1ccc(C(=O)NO)cc1F here?
Its Ratio IC50 is 1400.

Which Ratio IC50 (Homo sapiens [2]) does the source give for O=C(NO)c1ccc(NCc2csc3ccccc23)cc1 here?
The Ratio IC50 was over 100.

What about the Ratio IC50 (Homo sapiens [3]) of the same compound?
Its Ratio IC50 is over 100.

And the Ratio IC50 (Homo sapiens [4])?
The Ratio IC50 was over 100.

What about the Ratio IC50 (Homo sapiens [5]) of the same compound?
Its Ratio IC50 is over 100.

And the Ratio IC50 (Homo sapiens [6])?
Its Ratio IC50 is over 100.

And the Ratio IC50 (Homo sapiens [7])?
The Ratio IC50 was over 100.

What about the Ratio IC50 (Homo sapiens [8]) of the same compound?
Its Ratio IC50 is over 100.

What about the Ratio IC50 (Homo sapiens [9]) of the same compound?
Its Ratio IC50 is over 100.

What about the Ratio IC50 (Homo sapiens [1]) of the same compound?
The Ratio IC50 was over 100.

What about the Ratio IC50 (Homo sapiens [10]) of the same compound?
Its Ratio IC50 is over 100.

O=C(/C=C/c1cccn(CCCc2ccc3ccccc3c2)c1=O)NO was tested. Which pIC50 [11] did it give?
The pIC50 was 8.61.

And the pIC50 (Histone deacetylase 1 [12])?
Its pIC50 is 7.71.

And the pIC50 (Histone deacetylase 2 [13])?
Its pIC50 is 6.89.

What about the IC50 (Histone deacetylase) of the same compound?
The IC50 was 70 nM.

CC(/C=C/C(=O)NO)=C\c1ccc(NS(=O)(=O)c2ccc(N(CCCl)CCCl)cc2)cc1 was tested. Which inhibition in vivo at 20 mg/kg (HCT-116) did it give?
Its inhibition in vivo at 20 mg/kg is 78%.

And the pIC50 (SH-SY5Y)?
Its pIC50 is 6.55.

And the GI50 (KMS-11)?
Its GI50 is 480 nM.

What about the pIC50 [14] of the same compound?
The pIC50 was 6.32.

What about the pIC50 (Histone deacetylase 1 [15]) of the same compound?
Its pIC50 is 4.85.

For O=C(NO)c1ccc(Cn2c3c(c4ccccc42)CS(=O)(=O)CC3)cc1, which Ratio IC50 (Homo sapiens [9]) is on record?
The Ratio IC50 was 842.

What about the Ratio IC50 (Homo sapiens [1]) of the same compound?
The Ratio IC50 was 5790.

Which results are given for O=C(NO)c1ccc(CN2c3ccccc3S(=O)(=O)C[C@@H]3CCCC[C@@H]32)cc1?
pIC50 [16]: < 5.10; pIC50 (Histone deacetylase 9): < 5.10; pIC50 (Histone deacetylase 5): < 5.10; pIC50 (Histone deacetylase 4): < 5.10; pIC50 (Histone deacetylase 3): < 5.10; pIC50 (Histone deacetylase 1 [17]): < 5.10; pIC50 (Histone deacetylase 2 [18]): < 5.10; pIC50 (Histone deacetylase 11): 5.62; pIC50 (Histone deacetylase 8): 5.96; pIC50 [19]: 8.10

What does the source list for COC(=O)[C@@H](Cc1ccccn1)NC(=O)CCCCCCC(=O)NO?
Ratio IC50 (HEK293T): 20; pIC50 [20]: 5.40
